Read-outs that look alike come from different tables or passages of the source. Blank lines part the entries; values can stand above or below the compound they belong to.
Legend:
[1] = target: D1/D5 receptor (^3H-23390); settings: radioligand ^3H-23390; cited from earlier work
CAR = settings: cited from earlier work
D2 receptor (^3H-Spip) = D2 receptor (^3H-Spip) (Homo sapiens, UniProt P14416)
[2] = tested on: adenosine, benzodiazepine, glutamate/AMPA/kainate, GABA, muscarinic, nicotinic, opiate, alpha- or beta-adrenergic sites; assay: Binding at other receptor sites
D1 receptors = assay: In vitro studies on cAMP second messenger (adenylate cyclase); format: biochemical
Description: (§1) Activation of D1 receptors by dopamine and similar agonists stimulates the production of cyclic AMP (cAMP) via activation of adenylate cyclase. […] To ensure that there was no species specificity to the receptor binding profile, ecopipam's potency and selectivity were evaluated using cloned human receptors. […] Positron emission tomography (PET) studies using radiolabeled ecopipam have been conducted in healthy volunteers (Karlsson et al., Psychopharmacol. 121:300-308, 1995).

hD1/hD5 receptors = assay: Binding to cloned human receptors
Description: as §1

[3] = tested on: adult patients with Tourette's Syndrome; assay: Open-label clinical study in adult patients with Tourette's Syndrome; format: in vivo, human
Description: A clinical program was carried out to test the safety, tolerability, and activity of ecopipam in adult patients with Tourette's Syndrome. A multicenter, open-label, nonrandomized study in 25 to 30 subjects was conducted to assess the activity and safety of ecopipam in subjects with TS. […] Assessment was performed at each visit. A follow-up visit was conducted via telephone at Week 10 to record any adverse events. Ecopipam was administered daily before bedtime at 50 mg/day for Week 1 and Week 2 and at 100 mg/day for Weeks 3-8. This treatment regimen is within the scope of the present invention; the compositions and various formulations described herein can be administered as described in this Example. The activity of ecopipam was measured using the following clinical rating scales: (1) Yale Global Tic Severity Scale (YGTSS; data based on this scoring system are presented below); (2) ADHD self-report symptom checklist (ASRS); (3)Yale-Brown Obsessive Compulsive Scale (YBOCS); (4) Premonitory Urge for […]; and (6) Clinical Global Impression Improvement and Severity Scales (CGI). The demographics of the study population were as follows: eighty three percent of the subjects were male (15 out of 18); fifteen were Caucasian, two were African-American, and one was an Asian/Pacific Islander. […] Four patients reported AEs that were rated as severe and included the following: sedation, insomnia, decreased appetite, hypersensitivity, cold sweat, and feeling jittery. The following AEs were rated mild to moderate and were reported in more than three subjects: fatigue, insomnia, nausea, sedation, headache, restlessness, anxiety, muscle twitching, dysphoria, and sleeplessness. These side effects are similar to those seen in other studies with ecopipam and were not unexpected.

D1/D5 receptors = settings: rat brain homogenates, low concentrations; cited from earlier work
D1 receptor = settings: rats, D1-agonist discriminative stimulus; cited from earlier work
[4] = target: dopamine D1 receptors in human brain (Homo sapiens, UniProt P21728); settings: radiolabeled ecopipam, healthy volunteers; cited from earlier work
[5] = radioligand ^3H-Spip; read-out: Ki (nM) ^3H-Spip; cited from earlier work

Chain of D2 receptor (^3H-Spip) (P14416 whole entry): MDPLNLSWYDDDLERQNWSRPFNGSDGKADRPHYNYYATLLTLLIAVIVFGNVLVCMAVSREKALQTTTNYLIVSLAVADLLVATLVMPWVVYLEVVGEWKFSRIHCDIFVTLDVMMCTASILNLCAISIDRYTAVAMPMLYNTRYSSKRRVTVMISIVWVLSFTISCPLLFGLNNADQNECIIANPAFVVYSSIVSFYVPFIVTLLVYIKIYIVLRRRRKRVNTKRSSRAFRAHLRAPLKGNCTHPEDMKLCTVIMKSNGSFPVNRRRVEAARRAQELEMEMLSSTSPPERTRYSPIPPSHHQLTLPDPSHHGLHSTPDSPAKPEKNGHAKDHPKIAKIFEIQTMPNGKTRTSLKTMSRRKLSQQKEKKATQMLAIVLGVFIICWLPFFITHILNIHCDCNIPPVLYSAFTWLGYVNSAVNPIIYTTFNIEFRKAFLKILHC
Chain of dopamine D1 receptors in human brain (P21728 whole entry): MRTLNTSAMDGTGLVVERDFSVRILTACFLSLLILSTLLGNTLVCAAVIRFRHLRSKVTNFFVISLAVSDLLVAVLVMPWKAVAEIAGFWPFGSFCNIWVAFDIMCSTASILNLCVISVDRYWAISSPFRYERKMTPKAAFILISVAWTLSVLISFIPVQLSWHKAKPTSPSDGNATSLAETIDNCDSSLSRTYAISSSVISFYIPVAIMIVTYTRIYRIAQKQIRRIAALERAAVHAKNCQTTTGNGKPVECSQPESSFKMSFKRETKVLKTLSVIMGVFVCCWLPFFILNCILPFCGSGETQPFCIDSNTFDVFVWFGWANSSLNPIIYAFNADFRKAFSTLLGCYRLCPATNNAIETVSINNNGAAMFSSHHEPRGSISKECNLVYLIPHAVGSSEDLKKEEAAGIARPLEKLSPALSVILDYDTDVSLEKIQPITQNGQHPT

Compound: CN1CCc2cc(Cl)c(O)cc2C2c3ccccc3CC21 (stereo not drawn) [Q=CH2, n=0, trans, X=Cl, Y=OH]
Ki [1]: 10 nM

Compound: CN1CCc2cc(Cl)c(O)cc2[C@H]2c3ccccc3CC[C@@H]21 [Q=CH2, n=1, 7b(R):7a(S)(−), X=Cl, Y=OH]
CAR (MED), po (CAR): 30 (po)

Compound: CN1CCc2cc(Cl)c(O)cc2[C@@H]2c3ccccc3CC[C@H]21 [Q=CH2, n=1, 7b(S):7a(R)(+), X=Cl, Y=OH]
CAR (MED), po (CAR): >30 (po)

Compound: COc1cc2c(cc1O)C1c3ccccc3CCC1N(C)CC2 (stereo not drawn) [Q=CH2, n=1, cis, X=CH3O, Y=OH]
Ki [1]: 6450 nM
Ki (D2 receptor (^3H-Spip); read-out: Ki (nM) ^3H-Spip; radioligand ^3H-Spip; cited from earlier work): > 100000 nM

Compound: Cc1cc2c(cc1O)C1c3ccccc3CCC1N(C)CC2 (stereo not drawn) [Q=CH2, n=1, trans, X=CH3, Y=OH]
Ki [1]: 119 nM

Compound: COc1cc2c(cc1O)C1c3ccccc3CCC1N(C)CC2 (stereo not drawn) [Q=CH2, n=1, trans, X=CH3O, Y=OH]
Ki [1]: 23 nM
CAR (MED), po (CAR): 30 mg/kg
CAR (MED), sc (CAR; in mg/kg (unit assumed)): 0.3-1

Compound: CN1CCc2cc(Cl)c(N)cc2C2c3ccccc3CCC21 (stereo not drawn) [Q=CH2, n=1, trans, X=Cl, Y=NH2]
Ki [1]: 70 nM
CAR (MED), po (CAR): 3 (po)

Compound: CN1CCc2cc(Cl)c(O)cc2C2c3ccccc3CCC21 (stereo not drawn) [Q=CH2, n=1, trans, X=Cl, Y=OH]
CAR (MED), po (CAR): 30 mg/kg
CAR (MED), sc (CAR; in mg/kg (unit assumed)): 0.3

Compound: CN1CCc2ccc(O)cc2C2c3ccccc3CCC21 (stereo not drawn) [Q=CH2, n=1, trans, X=H, Y=OH]
Ki [1]: 80 nM

Compound: COc1cc2c(cc1O)C1c3ccccc3CCCC1N(C)CC2 (stereo not drawn) [Q=CH2, n=2, trans, X=CH3O, Y=OH]
Ki [1]: 292 nM
Ki (D2 receptor (^3H-Spip); [5]): > 100000 nM
CAR (MED), sc (CAR): 10 (sc)

Compound: COc1cc2c(cc1O)CCN(C)C1CCCc3ccccc3C21 (stereo not drawn) [Q=CH2, n=2, trans, X=HO, Y=CH3O]
Ki [1]: 7730 nM
Ki (D2 receptor (^3H-Spip); [5]): > 100000 nM
CAR (MED), sc (CAR): 10 (sc)

Compound: CN1CCc2ccc(O)cc2C2c3ccccc3OCC21 (stereo not drawn) [Q=O, n=1, trans, X=H, Y=OH]
Ki [1]: 121 nM

Concentration multiple at which it did not bind to other sites [2]: > 700 fold
Functional action on cAMP second messenger (D1 receptors): antagonist
Affinity for hD1/hD5 receptors (hD1/hD5 receptors): high affinity
Changes in lab tests ([3]; human, in vivo): none were of clinical significance
Compound: CN1CCc2cc(Cl)c(O)cc2[C@H]2c3ccccc3CC[C@@H]21 [ecopipam, (−)-trans-6,7,7a,8,9,13b-hexahydro-3-chloro-2-hydroxy-N-methyl-5H-benzo [d]-naphtho-[2,1-b]azepine]
Patients with at least one grade change in CGI-S score ([3]; 9 of the 15 patients, p≤0.01 Student's t test): 60%
Subjects reporting adverse events ([3]; 18 subjects): All subjects reported at least one adverse event
Change in YGTSS scores, intent to treat analysis ([3]; entire population n=18): statistically significant changes were evident
Change in YGTSS scores (motor, phonic, total severity), baseline to last visit ([3]; fifteen patients who completed the trial, 50 mg/day Weeks 1-2, 100 mg/day Weeks 3-8): highly statistically significant (Paired t-Test p<0.001) reduction
Changes in vital signs ([3]; human, in vivo): no clinically significant changes in vital signs
Serious adverse events ([3]; requiring medical intervention): no serious adverse events
Patients reporting AEs rated as severe ([3]; sedation, insomnia, decreased appetite, hypersensitivity, cold sweat, feeling jittery): Four
Affinity for D1/D5 receptors (D1/D5 receptors): high affinity
Action on dopamine-agonist-induced behaviors (D1 receptor): selective D1 antagonist
PET binding in the human brain [4]: specific binding in the human brain

— US11298361B2, “Fused benzazepines for treatment of Tourette's Syndrome” (EMALEX BIOSCIENCES, INC., priority 2012, dated 2022)
